From ChEMBL document CHEMBL3046607, “Synthesis and Herbicidal Activity of New 1-Alkyl-3-aryloxypyrazole-4-carboxamide Derivatives” (J Pestic Sci, 2004)
The source made the active and inactive calls.

What was measured:
Elatine triandra [1] = test: Post-emergence herbicidal activity against Elatine triandra assessed as bleaching of stem/leaf parts; type: functional, organism-based; further: test concentration or dose not given here
Ammannia multiflora [2] = test: Post-emergence herbicidal activity against Ammannia multiflora assessed as bleaching of stem/leaf parts; type: functional, organism-based
Rotala indica [3] = test: Post-emergence herbicidal activity against Rotala indica assessed as bleaching of stem/leaf parts; type: functional, organism-based
Lindernia procumbens [4] = test: Post-emergence herbicidal activity against Lindernia procumbens assessed as bleaching of stem/leaf parts; type: functional, organism-based; further: test concentration or dose not given here
[5] = tested on: Schoenoplectiella juncoides; test: Post-emergence herbicidal activity against Schoenoplectiella juncoides assessed as bleaching of stem/leaf parts; type: functional, organism-based; further: test concentration or dose not given here
Ammannia multiflora [6] = test: Pre-emergence herbicidal activity against Ammannia multiflora at 500 g a.i/ha measured after 14 days; type: functional, organism-based
Elatine triandra [7] = test: Pre-emergence herbicidal activity against Elatine triandra at 500 g a.i/ha measured after 14 days; type: functional, organism-based
Oryza sativa = test: Phytotoxicity against Oryza sativa cv. Koshihikari (rice) at 500 g a.i/ha measured after 14 days; type: organism-based; details: in vivo, 336 h
Rotala indica [8] = test: Pre-emergence herbicidal activity against Rotala indica at 500 g a.i/ha measured after 14 days; type: functional, organism-based
Lindernia procumbens [9] = test: Pre-emergence herbicidal activity against Lindernia procumbens at 500 g a.i/ha measured after 14 days; type: functional, organism-based
[10] = tested on: Schoenoplectiella juncoides; test: Pre-emergence herbicidal activity against Schoenoplectiella juncoides at 500 g a.i/ha measured after 14 days; type: functional, organism-based
Pontederia vaginalis [11] = test: Pre-emergence herbicidal activity against Monochoria vaginalis at 500 g a.i/ha measured after 14 days; type: functional, organism-based
Cyperus difformis [12] = test: Pre-emergence herbicidal activity against Cyperus difformis at 500 g a.i/ha measured after 14 days; type: functional, organism-based
Echinochloa oryzicola [13] = test: Pre-emergence herbicidal activity against Echinochloa oryzicola at 500 g a.i/ha measured after 14 days; type: functional, organism-based
Lindernia procumbens [14] = test: Pre-emergence herbicidal activity against Lindernia procumbens assessed as bleaching of stem/leaf parts; type: functional, organism-based
Pontederia vaginalis [15] = test: Pre-emergence herbicidal activity against Monochoria vaginalis assessed as bleaching of stem/leaf parts; type: functional, organism-based
[16] = tested on: Schoenoplectiella juncoides; test: Pre-emergence herbicidal activity against Schoenoplectiella juncoides assessed as bleaching of stem/leaf parts; type: functional, organism-based
Cyperus difformis [17] = test: Pre-emergence herbicidal activity against Cyperus difformis assessed as bleaching of stem/leaf parts; type: functional, organism-based
Echinochloa oryzicola [18] = test: Pre-emergence herbicidal activity against Echinochloa oryzicola assessed as bleaching of stem/leaf parts; type: functional, organism-based
Cyperus difformis [19] = test: Post-emergence herbicidal activity against Cyperus difformis assessed as bleaching of stem/leaf parts; type: functional, organism-based; further: test concentration or dose not given here
Pontederia vaginalis [20] = test: Post-emergence herbicidal activity against Monochoria vaginalis assessed as bleaching of stem/leaf parts; type: functional, organism-based
Echinochloa oryzicola [21] = test: Post-emergence herbicidal activity against Echinochloa oryzicola assessed as bleaching of stem/leaf parts; type: functional, organism-based
Ammannia multiflora [22] = test: Pre-emergence herbicidal activity against Ammannia multiflora assessed as bleaching of stem/leaf parts; type: functional, organism-based
Elatine triandra [23] = test: Pre-emergence herbicidal activity against Elatine triandra assessed as bleaching of stem/leaf parts; type: functional, organism-based
Rotala indica [24] = test: Pre-emergence herbicidal activity against Rotala indica assessed as bleaching of stem/leaf parts; type: functional, organism-based

Measured: Activity

Cn1cc(NC(=O)c2ccc(F)cc2F)c(OCc2cccc(C(F)(F)F)c2)n1
active: Elatine triandra [1] | Ammannia multiflora [2] | Rotala indica [3] | Lindernia procumbens [4] | [5] | Ammannia multiflora [6] | Elatine triandra [7] | Rotala indica [8] | Lindernia procumbens [9] | [10] | Pontederia vaginalis [11] | Cyperus difformis [12] | Echinochloa oryzicola [13] | Lindernia procumbens [14] | Pontederia vaginalis [15] | [16] | Cyperus difformis [17] | Echinochloa oryzicola [18] | Cyperus difformis [19] | Pontederia vaginalis [20] | Echinochloa oryzicola [21] | Ammannia multiflora [22] | Elatine triandra [23] | Rotala indica [24]
Non-toxic: Oryza sativa

Cn1cc(C(=O)N2CCCC2)c(Oc2cccc(C(F)(F)F)c2)n1
Non-toxic: Oryza sativa
inactive: Ammannia multiflora [6] | Elatine triandra [7] | Rotala indica [8] | Lindernia procumbens [9] | [10] | Pontederia vaginalis [11] | Cyperus difformis [12] | Echinochloa oryzicola [13]
active: Elatine triandra [1] | Ammannia multiflora [2] | Rotala indica [3] | Lindernia procumbens [4] | [5] | Lindernia procumbens [14] | Pontederia vaginalis [15] | [16] | Cyperus difformis [17] | Echinochloa oryzicola [18] | Cyperus difformis [19] | Pontederia vaginalis [20] | Echinochloa oryzicola [21] | Ammannia multiflora [22] | Elatine triandra [23] | Rotala indica [24]

CSc1ccc(Oc2nn(C)cc2C(=O)Nc2ccc(F)cc2F)cc1C(F)(F)F
inactive: [10]
Non-toxic: Oryza sativa
active: Elatine triandra [1] | Ammannia multiflora [2] | Rotala indica [3] | Lindernia procumbens [4] | [5] | Ammannia multiflora [6] | Elatine triandra [7] | Rotala indica [8] | Lindernia procumbens [9] | Pontederia vaginalis [11] | Cyperus difformis [12] | Echinochloa oryzicola [13] | Lindernia procumbens [14] | Pontederia vaginalis [15] | [16] | Cyperus difformis [17] | Echinochloa oryzicola [18] | Cyperus difformis [19] | Pontederia vaginalis [20] | Echinochloa oryzicola [21] | Ammannia multiflora [22] | Elatine triandra [23] | Rotala indica [24]

Cn1cc(NC(=O)c2ccc(F)cc2)c(Oc2cccc(C(F)(F)F)c2)n1
inactive: Ammannia multiflora [6] | Elatine triandra [7] | Rotala indica [8] | Lindernia procumbens [9] | [10] | Pontederia vaginalis [11] | Cyperus difformis [12] | Echinochloa oryzicola [13]
active: Elatine triandra [1] | Ammannia multiflora [2] | Rotala indica [3] | Lindernia procumbens [4] | [5] | Lindernia procumbens [14] | Pontederia vaginalis [15] | [16] | Cyperus difformis [17] | Echinochloa oryzicola [18] | Cyperus difformis [19] | Pontederia vaginalis [20] | Echinochloa oryzicola [21] | Ammannia multiflora [22] | Elatine triandra [23] | Rotala indica [24]
Non-toxic: Oryza sativa

Cn1cc(C(=O)NCC2CCCO2)c(Oc2cccc(C(F)(F)F)c2)n1 (stereo not given)
inactive: Ammannia multiflora [6] | Elatine triandra [7] | Rotala indica [8] | Lindernia procumbens [9] | [10] | Pontederia vaginalis [11] | Cyperus difformis [12] | Echinochloa oryzicola [13]
active: Elatine triandra [1] | Ammannia multiflora [2] | Rotala indica [3] | Lindernia procumbens [4] | [5] | Lindernia procumbens [14] | Pontederia vaginalis [15] | [16] | Cyperus difformis [17] | Echinochloa oryzicola [18] | Cyperus difformis [19] | Pontederia vaginalis [20] | Echinochloa oryzicola [21] | Ammannia multiflora [22] | Elatine triandra [23] | Rotala indica [24]
Non-toxic: Oryza sativa

Cn1cc(C(=O)Nc2ccc(F)cc2F)c(Oc2cc(C(F)(F)F)ccn2)n1
active: Elatine triandra [1] | Ammannia multiflora [2] | Rotala indica [3] | Lindernia procumbens [4] | [5] | Lindernia procumbens [14] | Pontederia vaginalis [15] | [16] | Cyperus difformis [17] | Echinochloa oryzicola [18] | Cyperus difformis [19] | Pontederia vaginalis [20] | Echinochloa oryzicola [21] | Ammannia multiflora [22] | Elatine triandra [23] | Rotala indica [24]
Non-toxic: Oryza sativa
inactive: Ammannia multiflora [6] | Elatine triandra [7] | Rotala indica [8] | Lindernia procumbens [9] | [10] | Pontederia vaginalis [11] | Cyperus difformis [12] | Echinochloa oryzicola [13]

Cn1cc(C(=O)NC2CC2)c(Oc2cccc(C(F)(F)F)c2)n1
Non-toxic: Oryza sativa
active: Elatine triandra [1] | Ammannia multiflora [2] | Rotala indica [3] | Lindernia procumbens [4] | [5] | Lindernia procumbens [14] | Pontederia vaginalis [15] | [16] | Cyperus difformis [17] | Echinochloa oryzicola [18] | Cyperus difformis [19] | Pontederia vaginalis [20] | Echinochloa oryzicola [21] | Ammannia multiflora [22] | Elatine triandra [23] | Rotala indica [24]
inactive: Ammannia multiflora [6] | Elatine triandra [7] | Rotala indica [8] | Lindernia procumbens [9] | [10] | Pontederia vaginalis [11] | Cyperus difformis [12] | Echinochloa oryzicola [13]

CC(NC(=O)c1cn(C)nc1Oc1cccc(C(F)(F)F)c1)c1ccccc1 (stereo not given)
Non-toxic: Oryza sativa
active: Elatine triandra [1] | Ammannia multiflora [2] | Rotala indica [3] | Lindernia procumbens [4] | [5] | Lindernia procumbens [14] | Pontederia vaginalis [15] | [16] | Cyperus difformis [17] | Echinochloa oryzicola [18] | Cyperus difformis [19] | Pontederia vaginalis [20] | Echinochloa oryzicola [21] | Ammannia multiflora [22] | Elatine triandra [23] | Rotala indica [24]
inactive: Ammannia multiflora [6] | Elatine triandra [7] | Rotala indica [8] | Lindernia procumbens [9] | [10] | Pontederia vaginalis [11] | Cyperus difformis [12] | Echinochloa oryzicola [13]

Cn1cc(NC(=O)c2ccccc2)c(Oc2cccc(C(F)(F)F)c2)n1
Non-toxic: Oryza sativa
inactive: Ammannia multiflora [6] | Elatine triandra [7] | Rotala indica [8] | Lindernia procumbens [9] | [10] | Pontederia vaginalis [11] | Cyperus difformis [12]
active: Elatine triandra [1] | Ammannia multiflora [2] | Rotala indica [3] | Lindernia procumbens [4] | [5] | Echinochloa oryzicola [13] | Lindernia procumbens [14] | Pontederia vaginalis [15] | [16] | Cyperus difformis [17] | Echinochloa oryzicola [18] | Cyperus difformis [19] | Pontederia vaginalis [20] | Echinochloa oryzicola [21] | Ammannia multiflora [22] | Elatine triandra [23] | Rotala indica [24]

Cn1cc(C(=O)NCc2cccc(Cl)c2)c(Oc2cccc(C(F)(F)F)c2)n1
Non-toxic: Oryza sativa
active: Elatine triandra [1] | Ammannia multiflora [2] | Rotala indica [3] | Lindernia procumbens [4] | [5] | Lindernia procumbens [14] | Pontederia vaginalis [15] | [16] | Cyperus difformis [17] | Echinochloa oryzicola [18] | Cyperus difformis [19] | Pontederia vaginalis [20] | Echinochloa oryzicola [21] | Ammannia multiflora [22] | Elatine triandra [23] | Rotala indica [24]
inactive: Ammannia multiflora [6] | Elatine triandra [7] | Rotala indica [8] | Lindernia procumbens [9] | [10] | Pontederia vaginalis [11] | Cyperus difformis [12] | Echinochloa oryzicola [13]
